Reference: ChEMBL document CHEMBL1201862, “PubChem BioAssay data set” (2004)
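Cells were grown in 96-well plates and exposed to each compound for 48 hours at five concentrations; endpoints were interpolated linearly between bracketing concentrations, or set to the highest concentration if not reached. GI50: concentration for 50% inhibition of growth.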 The source made the active and inactive calls. Cut-off read from the data, not from the text of the source: active = GI50 up to about 1.1 µM and inactive = higher.

Columns and labels:
Experiment in all cases: NCI tumour cell line growth inhibition, 48 h
786-0 = system: 786-0
A498 = system: A498
A549 = system: A549
ACHN = system: ACHN
BT-549 = system: BT-549
CAKI-1 = system: CAKI-1
CCRF-CEM = system: CCRF-CEM
COLO 205 = system: COLO 205
DLD-1 = system: DLD-1
DU-145 = system: DU-145
EKVX = system: EKVX
HCT-116 = system: HCT-116
HCT-15 = system: HCT-15
HL-60 = system: HL-60
HOP-18 = system: HOP-18
HOP-62 = system: HOP-62
HOP-92 = system: HOP-92
HT-29 = system: HT-29
Hs-578T = system: Hs-578T
IGROV-1 = system: IGROV-1
K562 = system: K562
KM-20L2 = system: KM-20L2
KM12 = system: KM12
LOX IMVI = system: LOX IMVI
LXFL 529 = system: LXFL 529
M14 = system: M14
M19-MEL = system: M19-MEL
MCF7 = system: MCF7
MDA-MB-231 = system: MDA-MB-231
MDA-MB-435 = system: MDA-MB-435
MDA-N = system: MDA-N
MOLT-4 = system: MOLT-4
Malme-3M = system: Malme-3M
NCI-H226 = system: NCI-H226
NCI-H23 = system: NCI-H23
NCI-H460 = system: NCI-H460
NCI-H522 = system: NCI-H522
NCI/ADR-RES = system: NCI/ADR-RES
OVCAR-3 = system: OVCAR-3
OVCAR-4 = system: OVCAR-4
OVCAR-5 = system: OVCAR-5
OVCAR-8 = system: OVCAR-8
PC-3 = system: PC-3
RPMI-8226 = system: RPMI-8226
RXF 393 = system: RXF 393
RXF 631 = system: RXF 631
SF-268 = system: SF-268
SF-295 = system: SF-295
SF-539 = system: SF-539
SK-MEL-28 = system: SK-MEL-28
SK-MEL-2 = system: SK-MEL-2
SK-MEL-5 = system: SK-MEL-5
SK-OV-3 = system: SK-OV-3
SN12C = system: SN12C
SNB-19 = system: SNB-19
SNB-75 = system: SNB-75
SNB-78 = system: SNB-78
SR = system: SR
SW-620 = system: SW-620
TK-10 = system: TK-10
U-251 = system: U-251
UACC-257 = system: UACC-257
UACC-62 = system: UACC-62
UO-31 = system: UO-31
XF498 = system: XF498

With `C/C(=N\NS(=O)(=O)c1ccc(C)cc1)C(CN(C)C)C(c1ccccc1)c1c(O)c2ccccc2oc1=O` (stereo not given) the GI50 (786-0) was > 100 µM (inactive), the GI50 (A498) was > 100 µM (inactive) and the GI50 (A549) was > 100 µM (inactive). For the same compound, the GI50 (ACHN) was > 100 µM (inactive), the GI50 (BT-549) was > 100 µM (inactive) and the GI50 (CAKI-1) was > 100 µM (inactive). For the same compound, the GI50 (CCRF-CEM) was > 100 µM (inactive), the GI50 (COLO 205) was > 95.3 µM (inactive) and the GI50 (DLD-1) was > 100 µM (inactive). For the same compound, the GI50 (DU-145) was > 100 µM (inactive), the GI50 (EKVX) was > 100 µM (inactive) and the GI50 (HCT-116) was > 100 µM (inactive). The GI50 (HCT-15) was over 100 µM, the GI50 (HL-60) was > 100 µM (inactive) and the GI50 (HOP-18) was > 100 µM (inactive). The GI50 (HOP-62) was 89.9 µM (inactive), the GI50 (HOP-92) was 60 µM (inactive) and the GI50 (HT-29) was > 100 µM (inactive). The GI50 (Hs-578T) was > 100 µM (inactive), the GI50 (IGROV-1) was > 100 µM (inactive) and the GI50 (K562) was > 84.5 µM (inactive). For the same compound, the GI50 (KM-20L2) was > 100 µM (inactive), the GI50 (KM12) was > 100 µM (inactive) and the GI50 (LOX IMVI) was > 100 µM (inactive). For the same compound, the GI50 (LXFL 529) was > 100 µM (inactive), the GI50 (M14) was > 100 µM (inactive) and the GI50 (M19-MEL) was > 100 µM (inactive). For the same compound, the GI50 (MCF7) was > 100 µM (inactive), the GI50 (MDA-MB-231) was > 100 µM (inactive) and the GI50 (MDA-MB-435) was > 100 µM (inactive). For the same compound, the GI50 (MDA-N) was > 100 µM (inactive), the GI50 (MOLT-4) was > 100 µM (inactive) and the GI50 (Malme-3M) was > 100 µM (inactive). For the same compound, the GI50 (NCI-H226) was > 100 µM (inactive), the GI50 (NCI-H23) was > 100 µM (inactive) and the GI50 (NCI-H460) was > 100 µM (inactive). For the same compound, the GI50 (NCI-H522) was > 100 µM (inactive), the GI50 (NCI/ADR-RES) was > 100 µM (inactive) and the GI50 (OVCAR-3) was > 100 µM (inactive). For the same compound, the GI50 (OVCAR-4) was > 100 µM (inactive), the GI50 (OVCAR-5) was > 100 µM (inactive) and the GI50 (OVCAR-8) was > 100 µM (inactive). For the same compound, the GI50 (PC-3) was > 100 µM (inactive), the GI50 (RPMI-8226) was > 95.9 µM (inactive) and the GI50 (RXF 393) was 55.2 µM (inactive). For the same compound, the GI50 (RXF 631) was > 100 µM (inactive), the GI50 (SF-268) was > 100 µM (inactive) and the GI50 (SF-295) was > 100 µM (inactive). For the same compound, the GI50 (SF-539) was > 100 µM (inactive), the GI50 (SK-MEL-28) was > 100 µM (inactive) and the GI50 (SK-MEL-2) was > 100 µM (inactive). For the same compound, the GI50 (SK-MEL-5) was > 100 µM (inactive), the GI50 (SK-OV-3) was 99.1 µM (inactive) and the GI50 (SN12C) was > 100 µM (inactive). The GI50 (SNB-19) was > 100 µM (inactive), the GI50 (SNB-75) was > 51.9 µM (inactive) and the GI50 (SNB-78) was > 100 µM (inactive). For the same compound, the GI50 (SR) was > 60 µM (inactive), the GI50 (SW-620) was > 69.3 µM (inactive) and the GI50 (TK-10) was > 100 µM (inactive). For the same compound, the GI50 (U-251) was > 100 µM (inactive), the GI50 (UACC-257) was > 100 µM (inactive) and the GI50 (UACC-62) was > 86.3 µM (inactive). For the same compound, the GI50 (UO-31) was > 81.7 µM (inactive) and the GI50 (XF498) was > 100 µM (inactive).
